Experimental data published in article PMC3856094, “Identification of Novel Small Molecules as Inhibitors of Hepatitis C Virus by Structure-Based Virtual Screening” (International Journal of Molecular Sciences, 2013).
Several values for one entry are separate records, joined by “and”; a condition that tells them apart may be missing. Equal entries are not always repeated.

Assays:
[1] = test system: HCV replicon, Huh7 (NS3-5B) cells; assay: cell-based HCV replicon assay (luciferase); set-up: species or system Hepatitis C virus genotype 1b; conditions: for IC50: genotype 1b, Huh7 (NS3-5B) cells, 48 h incubation, luciferase readout; for SI (selectivity index): ratio of CC50/IC50
Method: Huh7 (NS3-5B) cells correspond to a stable cell line transfected with HCV NS3-5B genotype 1b. The cells were seeded (1 × 10^4 cells per well) in Dulbecco’s Modified Eagle Medium (DMEM) supplemented with 10% fetal bovine serum, 2 mM glutamine, penicillin (100 IU/mL)/streptomycin (100 μg/mL), 1× nonessential amino acids and 0.5 mg/mL G418 in 96-well plates overnight. Compounds were diluted and added to each well. Each concentration was measured in duplicate. After 48 h of incubation, 100 μL of Steady-Glo Luciferase buffer (E2550, Promega, Beijing, China) was added to each well and shaken for 10 min, and the results were read on plate reader (ENVISION, PerkinElmer, Shanghai, China). The IC50 values were calculated by fitting with the parameter of the Hill equation.

[2] = biological target: T1, HCV NS3/4A protease (Hepatitis C virus genotype 1b, UniProt O92972); assay: HCV NS3/4A protease assay (SensoLyte 490 kit); conditions: inhibition percentage at 50 μM in biochemical protease assay, mean of duplicate wells
T1 construct: HCV NS3/4A protease diluent (10 ng, 10 μL); purchased AnaSpec 71126 (assay kit)
Method: A SensoLyte® 490 HCV Protease Assay Kit (AnaSpec, Cat#71126) was used for screening HCV protease inhibitors. The test compounds (100 nL of 200× final concentration, prepared by the ECHO liquid handler (ECHO, Labcyte, CA, USA)) and HCV NS3/4A protease diluent (10 ng, 10 μL) were added into a 384-well black microplate (Corning #3573). The known HCV NS3/4A protease inhibitor (Ac-DEDif-EchaC, AnaSpec Cat#25346) was used as a control. The plate was incubated at room temperature for enzymatic reaction for 10 min. In the meantime, the HCV NS3/4A protease substrate solution was also incubated at the same temperature. The reaction was initiated by adding 10 μL of HCV NS3/4A protease substrate. The reagents were completely mixed by shaking the plate gently for 30–60 s. For the kinetic reading, the fluorescence intensity at Ex/Em = 340 nm/490 nm was immediately measured, and the data was recorded every 2 min for 30 min.

[3] = set-up: method as in SPECS; conditions: values provided by vendor; ref SPECS; cited from earlier work
[4] = cell cytotoxicity assay (MTT); format: cell-based; conditions: human, 50% cytotoxicity concentration, Huh7 (NS3-5B) cells
Method: To determine if the compounds were cytotoxic to Huh7 (NS3-5B) cells, the cells (1 × 10^4 cells per well) were plated on 96-well microtiter plates and were incubated at 37 °C in 5% CO2 overnight. Various concentrations of the compounds were added to the wells. 48 h later, 10 μL of MTT (M2128, Sigma, Shanghai, China) were added to each well and incubated at 37 °C for 4 h. One-hundred microliters of MTT buffer (10% SDS + 5% isobutyl alcohol + 10 mmol/L HCl) were added overnight, and the optical density readings were measured by colorimeter at 580 and 680 nm.

[5] = set-up: method as in SPECS; conditions: values provided by vendor; ref SPECS; cited from earlier work; remark: listed apart in the source

T1 sequence (O92972 1658-1711): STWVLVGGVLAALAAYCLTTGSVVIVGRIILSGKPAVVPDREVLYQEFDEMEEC
T1 sequence (O92972 1027-1657): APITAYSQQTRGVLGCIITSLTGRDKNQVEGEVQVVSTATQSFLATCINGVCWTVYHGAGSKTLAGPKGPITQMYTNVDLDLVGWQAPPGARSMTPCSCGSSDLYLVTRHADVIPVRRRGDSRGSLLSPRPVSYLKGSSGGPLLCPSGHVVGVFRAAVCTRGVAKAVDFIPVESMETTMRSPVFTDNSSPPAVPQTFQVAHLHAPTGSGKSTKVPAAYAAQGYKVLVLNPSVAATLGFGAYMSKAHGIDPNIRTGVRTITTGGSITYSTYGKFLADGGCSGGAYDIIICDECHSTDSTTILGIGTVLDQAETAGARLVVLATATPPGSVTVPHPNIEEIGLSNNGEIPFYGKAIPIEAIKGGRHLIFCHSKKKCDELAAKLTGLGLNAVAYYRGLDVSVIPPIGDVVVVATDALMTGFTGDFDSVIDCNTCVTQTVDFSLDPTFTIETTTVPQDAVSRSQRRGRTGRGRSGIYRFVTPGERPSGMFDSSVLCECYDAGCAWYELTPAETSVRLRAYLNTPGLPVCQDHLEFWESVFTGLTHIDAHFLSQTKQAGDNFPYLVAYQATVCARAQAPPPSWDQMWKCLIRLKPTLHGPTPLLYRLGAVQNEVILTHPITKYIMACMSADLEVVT

O=C(N/N=C/c1ccc(O)cc1O)c1[nH]nc2c1CCCC2 [Compound 1]
IC50 ([1]; Hepatitis C virus, Huh-7, 48 h): 4.69 µM
SI (selectivity index) [1]: 0.10
inhibition at 50 µM [2]: 96.7%
LogP [3]: 0.27
CC50 at 48 h [4]: 0.46 µM
LogS [5]: −3.01

Cc1ccc(O)c(/C=N/NC(=O)C2C(=O)NCC2c2ccccc2)c1 (stereo not shown) [Compound 3]
IC50 ([1]; Hepatitis C virus, Huh-7, 48 h): 13.4 µM
SI (selectivity index) [1]: >3.73
LogP [3]: 2.75
CC50 at 48 h [4]: > 50 µM
LogS [5]: −3.69

O=C(NC(C(=O)N/N=C/c1ccc(O)cc1O)c1n[nH]c(=O)c2ccccc12)c1ccccc1 (stereo not shown) [Compound 2]
IC50 ([1]; Hepatitis C virus, Huh-7, 48 h): 11.2 µM
SI (selectivity index) [1]: >4.46
inhibition at 50 µM [2]: 77.9%
LogP [3]: 1.95
CC50 at 48 h [4]: > 50 µM
LogS [5]: −3.90

COc1cccc(/C=N/NC(=O)c2cc3ccccc3nc2C)c1O [Compound 5]
IC50 ([1]; Hepatitis C virus, Huh-7, 48 h): 3 µM
IC50 [1]: 3.01 µM
LogP [3]: 3.17
CC50 at 48 h [4]: > 50 µM
LogS [5]: −4.05

COc1ccc(/C=N/NC(=O)c2ccc(O)cc2O)cc1O [Compound 4]
IC50 ([1]; Hepatitis C virus, Huh-7, 48 h): 15.3 µM
SI (selectivity index) [1]: >3.27
inhibition at 50 µM [2]: 56.9%
LogP [3]: 2.2
CC50 at 48 h [4]: > 50 µM
LogS [5]: −2.48

CCC(C)c1ccc(-c2cc(C(=O)N/N=C/c3cccnc3)c3ccccc3n2)cc1 (stereo not shown) [Compound 7]
IC50 ([1]; Hepatitis C virus, Huh-7, 48 h): 4.14 µM
SI (selectivity index) [1]: 2.85
inhibition at 50 µM [2]: 64.3%
LogP [3]: 5.84
CC50 at 48 h [4]: 11.8 µM
LogS [5]: −5.53

C=CCc1cccc(/C=N/c2ccc(OC)cc2)c1O [Compound 11]
IC50 ([1]; Hepatitis C virus, Huh-7, 48 h): < 10 µM
IC50 [1]: 5.1 µM and 5.14 µM
LogP [3]: 4.43
CC50 at 48 h [4]: > 50 µM
LogS [5]: −4.16

NC(=S)N/N=C/c1ccc(O)c(O)c1 [Compound 9]
inhibition at 50 µM [2]: 33.7%
LogP [3]: 1.53
LogS [5]: −1.03

O=C(COC(=O)c1cccc(N2C(=O)C3C4c5ccccc5C(c5ccccc54)C3C2=O)c1)c1ccc(Br)cc1 (stereo not shown) [Compound 16]
IC50 ([1]; Hepatitis C virus, Huh-7, 48 h): 9.42 µM
SI (selectivity index) [1]: >5.31
LogP [3]: 4.48
CC50 at 48 h [4]: > 50 µM
LogS [5]: −8.04

O=C(CSc1nnc(CNc2ccccc2)n1-c1ccc(Cl)cc1Cl)N/N=C/c1c2ccccc2cc2ccccc12 [Compound 6]
IC50 ([1]; Hepatitis C virus, Huh-7, 48 h): 5.04 µM
SI (selectivity index) [1]: 2.94
inhibition at 50 µM [2]: 48.1%
LogP [3]: 7.08
CC50 at 48 h [4]: 14.8 µM

O=C1c2ccccc2C(=O)N1/N=C/c1cccc(O)c1O [Compound 10]
IC50 ([1]; Hepatitis C virus, Huh-7, 48 h): 7.07 µM
SI (selectivity index) [1]: >7.07
LogP [3]: 2.18
CC50 at 48 h [4]: > 50 µM
LogS [5]: −2.5

NC(=S)N/N=C/c1cccc(O)c1O [Compound 8]
IC50 ([1]; Hepatitis C virus, Huh-7, 48 h): 6.23 µM
SI (selectivity index) [1]: 0.18
LogP [3]: 1.51
CC50 at 48 h [4]: 1.12 µM
LogS [5]: −1.89

COc1ccc(-c2cc(C(=O)Nc3ccc(S(=O)(=O)Nc4nccs4)cc3)c3ccccc3n2)c(OC)c1 [Compound 14]
IC50 ([1]; Hepatitis C virus, Huh-7, 48 h): 20.7 µM
SI (selectivity index) [1]: >2.42
LogP [3]: 5.1
CC50 at 48 h [4]: > 50 µM
LogS [5]: −7.55

CCCCC(CC)C(=O)Nc1nnc(Cc2ccc(OC)cc2)s1 (stereo not shown) [Compound 15]
IC50 ([1]; Hepatitis C virus, Huh-7, 48 h): 28.2 µM
SI (selectivity index) [1]: >1.77
inhibition at 50 µM [2]: 41.8%
LogP [3]: 4.57
CC50 at 48 h [4]: > 50 µM
LogS [5]: −5.64

Oc1ccc2cc(Br)ccc2c1/C=N/c1nc[nH]n1 [Compound 12]
IC50 ([1]; Hepatitis C virus, Huh-7, 48 h): 16.1 µM
SI (selectivity index) [1]: >3.11
inhibition at 50 µM [2]: 53%
LogP [3]: 3.23
CC50 at 48 h [4]: > 50 µM
LogS [5]: −2.67
